The values below come from patent publication US7462735B2, “Amino acid diamides in non α position which are useful as adjuvants for administration of biological active agents” (Laboratorios Farmaceuticos Rovi, S.A., priority 2003, dated 2008).

Series [1] in a line: Intracolonic absorption of bemiparin in the rat, with or without adjuvant (plasma anti-Xa activity). The following applies: for effect on colonic absorption of bemiparin measured by plasma anti-Xa activity: adjuvant given with bemiparin, result in words; for anti-Xa activity/ml in plasma: 30 mg/kg bemiparin (+ 30 mg/kg adjuvant). Type of series: in vivo. The text has this: The properties of the invention products have been investigated in an experimental model described below that consists of measuring the intracolonic absorption in the rat of a low-molecular-weight heparin, bemiparin, with a mean molecular mass of around 3,500 daltons and an anti-Xa activity of around 100 units/mg.
The activity of all compounds of the examples described above was studied in animals according to the following experimental model:
Evaluate the absorption of the test product when administered by intracolonic route to rats, whether or not in the presence of adjuvants. The plasma concentration is measured by assaying the Factor Xa-inhibition capacity. The rat is used because it is one of the species commonly used in this type of test.
One intracolonic administration.
25% (v/v) propylene glycol in bidistilled water. After dissolving the test product along with the adjuvant if applicable, adjust the pH to approximately 7.4 with NaOH.
The animals will be in fasted state for approximately 18 h with free access to water
The animals will be randomized to the various experimental groups, with one remaining animal as a reserve per group:
On the day of the test, the treatments will be administered by intracolonic route, following anaesthesia with ketamine. Administration will be done using a catheter of approximately 8 cm, connected to a 1-ml syringe. The catheter will be introduced in its entirety into the colon through the anus and the test product will be administered slowly into the colon.
Following the administration of the test product, within the times established in the table, a citrated blood sample (3.8% at a ratio of 1:9) will be drawn by intracardiac puncture under anaesthesia with ketamine.
Blood centrifugation: 3000 rpm, 10 minutes, 4° C. Plasma freezing (−20±5° C.) until determining the anti-Factor Xa activity.
A control group that will receive no treatment will be included, simply that one blood sample will be drawn per animal under the same conditions as the treatment group, with considered to be the baseline value of anti-Xa activity.
The anti-Xa activity will be assayed by the chromogenic method (anti-FXa activity assay kit).
The mean, the standard deviation […] and the standard error of the mean of each experimental group will be calculated for each parameter. If considered adequate, the values obtained in the different experimental groups will be compared by a statistical analysis.

A further series deals with Factor Xa. As to the kind of experiment: Anti-Xa activity of the heparin material (units/mg). Type of series: biochemical. The following applies: specific activity of the heparin material.

`O=C(O)CCCNC(=O)c1ccc(NC(=O)c2ccccc2O)cc1` [Example 1, 4-[4-(hydroxybenzoylamino)benzoylamino]butanoic acid] returned a melting point of 211 to 213 °C. The “effect on colonic absorption of bemiparin measured by plasma anti-Xa activity” value (shortened to “effect on colonic absorption”) in series [1] is “no effect”.
For the molecule `O=C(O)CCCCCNC(=O)c1ccc(NC(=O)c2ccccc2O)cc1` [Example 2, 6-[4-(2-hydroxybenzoylamino)benzoylamino]hexanoic acid], the melting point lay within 201 to 203 °C. Besides, the “effect on colonic absorption” value in series [1] is on record as “no effect”.
With `O=C(O)CCCNC(=O)c1cccc(NC(=O)c2ccccc2O)c1` [Example 3, 4-[3-(2-hydroxybenzoylamino)benzoylamino]butanoic acid], the melting point is 172 to 174 °C. For the same molecule, the “effect on colonic absorption” value in series [1] is listed as “no effect”.
On to `O=C(O)CCCNC(=O)c1ccccc1NC(=O)c1ccccc1O` [Example 4, 4-[2-(2-hydroxybenzoylamino)benzoylamino]butanoic acid], for which the melting point was 173 to 174 °C. Besides, the “effect on colonic absorption” value in series [1] was “strong increase”.
As to `O=C(O)CCCCNC(=O)c1ccccc1NC(=O)c1ccccc1O` [Example 5, 5-[2-(2-hydroxybenzoylamino)benzoylamino]pentanoic acid], the melting point fell in the range of 168 to 170 °C.
Still for that read-out and setting: the same measure for `O=C(O)CCCCCCCNC(=O)c1ccccc1NC(=O)c1ccccc1O` [Example 6, 8-[2-(2-hydroxybenzoylamino)benzoylamino]octanoic acid]: 124 to 125 °C.
As to `O=C(O)CCCCCNC(=O)c1ccccc1NC(=O)c1ccccc1O` [Example 7, 6-[2-(2-hydroxybenzoylamino)benzoylamino]hexanoic acid], the melting point lay in the range of 165 to 167 °C.
Molecule `O=C(O)CCCNC(=O)c1ccccc1NC(=O)c1ccccc1[N+](=O)[O-]` [Example 8, 4-[2-(2-nitrobenzoylamino)benzoylamino]butanoic acid] yielded a melting point of 142 to 144 °C.
`O=C(O)CCNC(=O)c1ccccc1NC(=O)c1ccccc1O` [Example 9, 3-[2-(2-hydroxybenzoylamino)benzoylamino]propanoic acid] came in with a melting point of 200 to 202 °C.
`O=C(O)CCCNC(=O)c1ccccc1NC(=O)c1ccc([N+](=O)[O-])cc1O` [Example 11, 4-[2-(2-hydroxy-4-nitrobenzoylamino)benzoylamino]butanoic acid] had a melting point of 209 to 211 °C. Besides, in series [1], the “effect on colonic absorption” value is recorded as “strong increase”.
`O=C(O)CCCNC(=O)c1ccccc1NC(=O)c1cc([N+](=O)[O-])ccc1O` [Example 12, 4-[2-(2-hydroxy-5-nitrobenzoylamino)benzoylamino]butanoic acid] registered a melting point of 239 to 241 °C.
In the case of `COc1ccc(C(=O)Nc2ccccc2C(=O)NCCCC(=O)O)c(O)c1` [Example 13, 4-[2-(2-hydroxy-4-methoxybenzoylamino)benzoylamino]butanoic acid], the melting point lay in the range of 201 to 203 °C.
The same measure, in the same setting: the same measure for `COc1ccc(O)c(C(=O)Nc2ccccc2C(=O)NCCCC(=O)O)c1` [Example 14, 4-[2-(2-hydroxy-5-methoxybenzoylamino)benzoylamino]butanoic acid]: 191 to 193 °C.
Same read-out and setting: the figure for `O=C(O)CCCNC(=O)c1ccccc1NC(=O)c1ccc([N+](=O)[O-])cc1` [Example 15, 4-[2-(4-nitrobenzoylamino)benzoylamino]butanoic acid] is 206 to 208 °C; for `COc1ccc(C(=O)Nc2ccccc2C(=O)NCCCC(=O)O)cc1` [Example 16, 4-[2-(4-methoxybenzoilamino)benzoilamino]butanoic acid] it is 172 to 174 °C.
The molecule `O=C(O)CCCNC(=O)c1ccccc1NC(=O)c1ccc(Cl)cc1` [Example 17, 4-[2-(4-chlorobenzoylamino)benzoylamino]butanoic acid] gave a melting point of 182 to 184 °C. Also, the “effect on colonic absorption” value in series [1] is reported as “strong increase”.
In turn, `O=C(O)CCCNC(=O)c1ccccc1NC(=O)c1ccc(Cl)cc1O` [Example 18, 4-[2-(4-chloro-2-hydroxybenzoylamino)benzoylamino]butanoic acid] returned a melting point of 205 to 206 °C.
Consider `O=C(O)CCCNC(=O)c1ccccc1NC(=O)c1cc(Cl)ccc1O` [Example 19, 4-[2-(5-chloro-2-hydroxybenzoylamino)benzoylamino]butanoic acid], for which the melting point lay within 222 to 223 °C.
`O=C(O)CCCNC(=O)c1ccccc1NC(=O)c1ccccc1Cl` [Example 20, 4-[2-(2-chlorobenzoylamino)benzoylamino]butanoic acid]: the melting point is 110 to 112 °C.
`O=C(O)CCCNC(=O)c1ccccc1NC(=O)c1ccccc1Br` [Example 21, 4-[2-(2-bromobenzoylamino)benzoylamino]butanoic acid] had a melting point of 117 to 118 °C.
Consider `O=C(O)CCCNC(=O)c1ccccc1NC(=O)c1cccc(Cl)c1` [Example 22, 4-[2-(3-chlorobenzoylamino)benzoylamino]butanoic acid], for which the melting point was 165 to 166 °C.
On to Bemiparin, for which the anti-Xa activity result in the series on Factor Xa is listed as “around 100 units/mg”. Besides, the “anti-Xa activity/ml in plasma” value came to 0.103 in series [1] (0.5 h post-administration), 0.222 in series [1] (2 h post-administration) and 0.345 in series [1] (4 h post-administration).
